Results reported in patent US12187705B2, “Heteroaryl-triazole and heteroaryl-tetrazole compounds as pesticides” (Bayer Aktiengesellschaft, priority 2018, dated 2025).

Columns and labels:
Type in all cases: in vivo
[1] = test system: Ctenocephalides felis; assay: Ctenocephalides felis in-vitro contact test adult cat flea; conditions: Ctenocephalides felis; 5 μg/cm^2 (=500 g/ha), after 48 hours; read-out: efficacy (fleas dead or moribund)
Method in brief: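 Efficacy (% dead or moribund) was scored 48 h after adult Ctenocephalides felis were confined in tubes coated with the acetone-applied compound (900 ppm, 5 μg/cm^2). Moribund status was judged by failure to escape a 45-50° C heating plate within 5 minutes.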

[2] = test system: Nilaparvata lugens; assay: Nilaparvata lugens spray test; conditions: Nilaparvata lugens, in Oryza sativa, 96 h
Method in brief: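 Rice plants sprayed with compound diluted in water containing 1000 ppm emulsifier, then infested with brown planthopper. Mortality (%) scored after 4 days, 100% meaning all insects killed.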

[3] = test system: Ctenocephalides felis; assay: Ctenocephalides felis oral test; conditions: Ctenocephalides felis, in Bos taurus, po, 48 h
Method in brief: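 About 20 adult unfed fleas fed through parafilm on cattle blood containing compound (DMSO concentrate diluted in blood); blood held at 37° C., fleas at room temperature. Mortality in % scored after 2 days (100% = all killed).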

[4] = test system: Boophilus microplus; assay: Boophilus microplus injection test; conditions: Rhipicephalus microplus, 168 h, 20 μg/animal, egg deposition after 7 days, read-out: efficacy (infertile eggs)
Method in brief: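 Efficacy expresses the share of infertile eggs (100% all infertile, 0% all fertile), judged at 7 days or at hatching around day 42. Five adult engorged females were each injected abdominally with 1 μl of DMSO compound solution and incubated in a climate chamber.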

[5] = test system: Tetranychus urticae; assay: Tetranychus urticae spray test OP-resistant; conditions: Tetranychus urticae, foliar, 144 h, French bean leaf disks, after 6 days
Method: Tetranychus urticae—Spray Test OP-Resistant
To produce a suitable preparation of active compound, 1 part by weight of active compound is mixed with the stated amount of solvents and is diluted with water, containing an emulsifier concentration of 1000 ppm, to the desired concentration. Further test concentrations are prepared by dilution with emulsifier containing water.
French bean (Phaseolus vulgaris) leaf disks infected with all instars of the two spotted spidermite (Tetranychus urticae), are sprayed with a preparation of the active ingredient of the desired concentration.
After 6 days mortality in % is determined. 100% means all spider mites have been killed and 0% means none of the spider mites have been killed.

[6] = test system: Aedes aegypti strain MONHEIM; assay: Aedes aegypti test (AEDSAE surface treatment & contact assay); conditions: 24 hours after contact, read-out: efficacy (mortality); for mortality at 4 mg/m2: surface concentration 4 mg/m^2, 30 minutes exposure; for mortality at 20 mg/m2: surface concentration 20 mg/m^2, 30 minutes exposure
Method in brief: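 Compound dissolved in acetone (2 mg/ml) with 2000 ppm rapeseed oil methyl ester and dried onto a glazed tile. Adult mosquitoes held on the treated surface for 30 minutes exposure. Percent mortality scored 24 hours after contact.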

[7] = test system: Myzus persicae; assay: Myzus persicae spray test; conditions: in Brassica rapa, foliar, 120 h
Method in brief: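 Percent kill was recorded 5 days after spraying. Test solutions, prepared with solvent and diluted in 1000 ppm emulsifier water, were applied to Brassica pekinensis leaf disks carrying mixed-instar green peach aphids.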

[8] = test system: Spodoptera frugiperda; assay: Spodoptera frugiperda spray test; conditions: in Zea mays, 168 h
Method in brief: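 Percent larval kill read at day 7 on Zea mays leaf pieces that were spray-treated and, after drying, infested. Spray preparations made by dilution with emulsifier-containing water (1000 ppm).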

[9] = test system: Culex quinquefasciatus strain P00; assay: Culex quinquefasciatus test (CULXFA surface treatment & contact assay); conditions: 24 hours after contact, read-out: efficacy (mortality); for mortality at 4 mg/m2: surface concentration 4 mg/m^2, 30 minutes exposure; for mortality at 20 mg/m2: surface concentration 20 mg/m^2, 30 minutes exposure
Method in brief: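 Compound dissolved in acetone (2 mg/ml) with 2000 ppm rapeseed oil methyl ester, applied to glazed tile and dried. Adult strain P00 mosquitoes exposed to the surface for 30 minutes. Percent mortality scored 24 hours after contact.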

[10] = test system: Nezara viridula; assay: Nezara viridula spray test; conditions: in Hordeum vulgare, 96 h
Method in brief: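 Barley plants infested with stink bug larvae were sprayed with compound diluted in water containing 1000 ppm emulsifier. Mortality (%) was scored after 4 days, 100% meaning all bugs killed.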

Structure (SMILES) | pest or weed control at 5 µg/cm2, 5 µg/cm2 [1] [%] | mortality at 500 g/ha [2] [%] | mortality at 100 ppm [3] [%] | pest or weed control at 0.02 mg [4] [%] | mortality at 500 g/ha [5] [%] | mortality at 4 mg/m2 [6] [%] | mortality at 20 mg/m2 [6] [%] | mortality at 500 g/ha [7] [%] | mortality at 500 g/ha [8] [%] | mortality at 4 mg/m2 [9] [%] | mortality at 20 mg/m2 [9] [%] | mortality at 500 g/ha [10] [%]
CCN(C(=O)c1cc(Cl)cc(S(C)(=O)=O)c1)C(C)c1ncnn1-c1ncccn1 (stereo not drawn) [Example I-040, 3-chloro-N-ethyl-5-(methylsulfonyl)-N-{1-[1-(pyrimidin-2-yl)-1H-1,2,4-triazol-5-yl]ethyl}benzamide] | 100 | 100 | 100 | 100 | 90 | 80 to 100 | 90 to 100 | 90 | 100 | 80 to 100 | 80 to 100 | 100
C[C@@H](NC(=O)c1cc(Cl)cc(S(=O)(=O)C2CC2)c1)c1ncnn1-c1ncccn1 [Example I-042] | 100 | 100 | 100 | 100 | 90 | 80 to 100 | 90 to 100 | 90 | 83 | 80 to 100 | 80 to 100 | 100
